The target of one experiment is human PDE 5 (Homo sapiens (Human), UniProt O76074). In words: Inhibition of human phosphodiesterase 5 (PDE 5), SPA assay. The experiment is classed as biochemical. The settings on record: PDE 5 preparation from human platelets, [8-3H]cGMP substrate. The protocol: B-6. Inhibition of Human Phosphodiesterase 5 (PDE 5)
PDE 5 preparations are obtained from human platelets by disruption (Microfluidizer®, 800 bar, 3 passes), followed by centrifugation (75 000 g, 60 min, 4° C.) and ion exchange chromatography of the supernatant on a Mono Q 10/10 column (linear sodium chloride gradient, elution with a 0.2-0.3M solution of sodium chloride in buffer (20 mM Hepes pH 7.2, 2 mM magnesium chloride). Fractions having PDE 5 activity are combined (PDE 5 preparation) and stored at −80° C.
To determine their in vitro action on human PDE 5, the test substances are dissolved in 100% DMSO and serially diluted. Typically, dilution series (1:3) from 200 μM to 0.091 μM are prepared (resulting final concentrations in the test: 4 μM to 0.0018 μM). In each case 2 μl of the diluted substance solutions are placed into the wells of microtitre plates (Isoplate-96/200 W; Perkin Elmer). Subsequently, 50 μl of a dilution of the above-described PDE 5 preparation are added. The dilution of the PDE 5 preparation is selected such that, during the later incubation, less than 70% of the substrate is converted (typical dilution: 1:100; dilution buffer: 50 mM tris/hydrochloric acid pH 7.5, 8.3 mM magnesium chloride, 1.7 mM EDTA, 0.2% BSA). The substrate, [8-^3H]cyclic guanosine-3′,5′-monophosphate (1 μCi/μl; Perkin Elmer) is diluted 1:2000 with assay buffer (50 mM tris/hydrochloric acid pH 7.5, 8.3 mM magnesium chloride, 1.7 mM EDTA) to a concentration of 0.0005 μCi/μl. By addition of 50 μl (0.025 μCi) of the diluted substrate, the enzyme reaction is finally started. The test mixtures are incubated at room temperature for 60 min and the reaction is stopped by adding 25 μl of a suspension of 18 mg/ml yttrium scintillation proximity beads in water (phosphodiesterase beads for SPA assays, RPNQ 0150, Perkin Elmer). The microtitre plates are sealed with a film and left to stand at room temperature for 60 min Subsequently, the plates are analysed for 30 s per well in a Microbeta scintillation counter (Perkin Elmer). IC50 values are determined using the graphic plot of the substance concentration against percentage PDE 5 inhibition.

The subject of experiment [1] is recombinant guanylate cyclase reporter cell line. In words: Effect on a recombinant guanylate cyclase reporter cell line. The settings on record: read-out: MEC (minimal effective concentration). Format: cell-based. The protocol:
B-2. Effect on a Recombinant Guanylate Cyclase Reporter Cell Line
The cellular action of the inventive compounds is determined on a recombinant guanylate cyclase reporter cell line as described in F. Wunder et al., Anal. Biochem. 339, 104-112 (2005).

The subject of the next experiment is rabbit aorta rings. In words: Vasorelaxant effect in vitro (rabbit aorta rings precontracted with phenylephrine). The settings on record: Oryctolagus cuniculus, phenylephrine contraction, read-out: IC50 (concentration needed to reduce the magnitude of the phenylephrine contraction by 50%). The protocol: B-1. Vasorelaxant Effect In Vitro
Rabbits are stunned by a blow to the neck and exsanguinated. The aorta is removed, freed from adhering tissue and divided into rings of width 1.5 mm, which are placed individually under prestress into 5 ml organ baths with carbogen-sparged Krebs-Henseleit solution at 37° C. having the following composition (each mM): sodium chloride: 119; potassium chloride: 4.8; calcium chloride dihydrate: 1; magnesium sulphate heptahydrate: 1.4; potassium dihydrogenphosphate: 1.2; sodium hydrogencarbonate: 25; glucose: 10. The contractile force is determined with Statham UC2 cells, amplified and digitalized using A/D transducers (DAS-1802 HC, Keithley Instruments Munich), and recorded in parallel on linear recorders.
To obtain a contraction, phenylephrine is added to the bath cumulatively in increasing concentration. After several control cycles, the substance to be studied is added in increasing dosage each time in every further run, and the magnitude of the contraction is compared with the magnitude of the contraction attained in the last preceding run. This is used to calculate the concentration needed to reduce the magnitude of the control value by 50% (IC50 value). The standard administration volume is 5 μl; the DMSO content in the bath solution corresponds to 0.1%.

As to `CC1(C)C(=O)Nc2nc(-n3nc(Cc4c(F)ccc(F)c4F)c4cc(Cl)ccc43)ncc21` [Example 2, 2-[5-Chloro-3-(2,3,6-trifluorobenzyl)-1H-indazol-1-yl]-5,5-dimethyl-5,7-dihydro-6H-pyrrolo[2,3-d]pyrimidin-6-one], the IC50 against human PDE 5 turned out to be 3700 nM; in the experiment with rabbit aorta rings, 5160 nM. In experiment [1], the minimal effective concentration was 0.065 µM.

For the compound `CC1(C)C(=O)Nc2nc(-n3nc(Cc4ccccc4F)c4ccccc43)nc(I)c21` [Example 3, 2-[3-(2-Fluorobenzyl)-1H-indazol-1-yl]-4-iodo-5,5-dimethyl-5,7-dihydro-6H-pyrrolo[2,3-d]pyrimidin-6-one], the IC50 at human PDE 5 turned out to be 690 nM. Moreover, the minimal effective concentration in experiment [1] turned out to be 0.3 µM.

`CC1(C)C(=O)Nc2nc(-n3nc(Cc4ccccc4F)c4ccccc43)ncc21` [Example 5, 2-[3-(2-Fluorobenzyl)-1H-indazol-1-yl]-5,5-dimethyl-5,7-dihydro-6H-pyrrolo[2,3-d]pyrimidin-6-one]: the IC50 stood at 440 nM at human PDE 5 and 22 nM with rabbit aorta rings. The minimal effective concentration in experiment [1] was 0.03 µM.

`CC1(C)C(=O)Nc2nc(-n3nc(Cc4ccccc4F)c4cc(F)ccc43)nc(I)c21` [Example 6, 2-[5-Fluoro-3-(2-fluorobenzyl)-1H-indazol-1-yl]-4-iodo-5,5-dimethyl-5,7-dihydro-6H-pyrrolo[2,3-d]pyrimidin-6-one] returned an IC50 on human PDE 5 of 690 nM. In addition, in experiment [1], the minimal effective concentration stood at 0.766 µM.

Consider `CC1(C)C(=O)Nc2nc(-n3nc(Cc4ccccc4F)c4cc(F)ccc43)ncc21` [Example 8, 2-[5-Fluoro-3-(2-fluorobenzyl)-1H-indazol-1-yl]-5,5-dimethyl-5,7-dihydro-6H-pyrrolo[2,3-d]pyrimidin-6-one], for which the values for the IC50 against human PDE 5 and in the experiment with rabbit aorta rings were 400 nM and 95 nM, respectively. Also, in experiment [1], the minimal effective concentration was 0.3 µM.

With `CC1(C)C(=O)Nc2nc(-n3nc(Cc4ccccc4F)c4ncc(F)cc43)nnc21` [Example 9, 3-[6-Fluoro-3-(2-fluorobenzyl)-1H-pyrazolo[4,3-b]pyridin-1-yl]-7,7-dimethyl-5,7-dihydro-6H-pyrrolo[2,3-e][1,2,4]triazin-6-one], the IC50 at human PDE 5 amounted to 85 nM; with rabbit aorta rings, 641 nM. The minimal effective concentration in experiment [1] is 0.1 µM.

The compound `CC1(C)C(=O)Nc2nc(-c3nn(Cc4ccccc4F)c4c3CCC4)nc(I)c21` [Example 10, 2-[1-(2-Fluorobenzyl)-1,4,5,6-tetrahydrocyclopenta[c]pyrazol-3-yl]-4-iodo-5,5-dimethyl-5,7-dihydro-6H-pyrrolo[2,3-d]pyrimidin-6-one] had an IC50 against human PDE 5 of 480 nM. Further, the minimal effective concentration in experiment [1] amounted to 1 µM.

With `CC1(C)C(=O)Nc2nc(-c3nn(Cc4ccccc4F)c4c3CCC4)ncc21` [Example 11, 2-[1-(2-Fluorobenzyl)-1,4,5,6-tetrahydrocyclopenta[c]pyrazol-3-yl]-5,5-dimethyl-5,7-dihydro-6H-pyrrolo[2,3-d]pyrimidin-6-one], the IC50 on human PDE 5 was found to be 4000 nM; with rabbit aorta rings it was 601 nM. Also, in experiment [1], the minimal effective concentration turned out to be 0.3 µM.

As to `CC1(C)C(=O)Nc2nc(-c3nn(Cc4ccccc4F)c4c3CCC4)nnc21` [Example 12, 3-[1-(2-Fluorobenzyl)-1,4,5,6-tetrahydrocyclopenta[c]pyrazol-3-yl]-7,7-dimethyl-5,7-dihydro-6H-pyrrolo[2,3-e][1,2,4]triazin-6-one], the IC50 against human PDE 5 is 3500 nM. Further, the minimal effective concentration in experiment [1] worked out at 1 µM.

As to `Cc1ncc2c(-c3ncc4c(n3)NC(=O)C4(C)C)nn(Cc3ccccc3F)c2n1` [Example 15, 2-[1-(2-Fluorobenzyl)-6-methyl-1H-pyrazolo[3,4-d]pyrimidin-3-yl]-5,5-dimethyl-5,7-dihydro-6H-pyrrolo[2,3-d]pyrimidin-6-one], the IC50 was determined as 310 nM at human PDE 5 and 78 nM in the experiment with rabbit aorta rings. The minimal effective concentration in experiment [1] is 0.1 µM.

With `Cc1ncc2c(-c3nnc4c(n3)NC(=O)C4(C)C)nn(Cc3ccccc3F)c2n1` [Example 16, 3-[1-(2-Fluorobenzyl)-6-methyl-1H-pyrazolo[3,4-d]pyrimidin-3-yl]-7,7-dimethyl-5,7-dihydro-6H-pyrrolo[2,3-e][1,2,4]triazin-6-one], the values for the IC50 on human PDE 5 and in the experiment with rabbit aorta rings were 64 nM and 340 nM, respectively. The minimal effective concentration in experiment [1] turned out to be 0.3 µM.

As for `Cc1ncc2c(-c3ncc4c(n3)NC(=O)C4(C)C)nn(Cc3cccc(F)c3F)c2n1` [Example 17, 2-[1-(2,3-Difluorobenzyl)-6-methyl-1H-pyrazolo[3,4-d]pyrimidin-3-yl]-5,5-dimethyl-5,7-dihydro-6H-pyrrolo[2,3-d]pyrimidin-6-one], the IC50 came to 230 nM at human PDE 5 and 292 nM with rabbit aorta rings. Besides, the minimal effective concentration in experiment [1] stood at 0.3 µM.

For `Cc1ncc2c(-c3nnc4c(n3)NC(=O)C4(C)C)nn(Cc3cccc(F)c3F)c2n1` [Example 18, 3-[1-(2,3-Difluorobenzyl)-6-methyl-1H-pyrazolo[3,4-d]pyrimidin-3-yl]-7,7-dimethyl-5,7-dihydro-6H-pyrrolo[2,3-e][1,2,4]triazin-6-one], the IC50 against human PDE 5 turned out to be 16 nM; in the experiment with rabbit aorta rings, 1140 nM. Moreover, the minimal effective concentration in experiment [1] is 0.3 µM.

Turning to `CC1(C)C(=O)Nc2nc(-c3nn(Cc4ccccc4F)c4ncncc34)nnc21` [Example 19, 3-[1-(2-Fluorobenzyl)-1H-pyrazolo[3,4-d]pyrimidin-3-yl]-7,7-dimethyl-5,7-dihydro-6H-pyrrolo[2,3-e][1,2,4]triazin-6-one], the IC50 on human PDE 5 was 370 nM; in the experiment on rabbit aorta rings it was 124 nM. For the same compound, the minimal effective concentration in experiment [1] amounted to 0.1 µM.

For `CC1(C)C(=O)Nc2nc(-n3nc(Cc4ccccc4F)c4cc(F)ccc43)nnc21` [Example 21, 3-[5-Fluoro-3-(2-fluorobenzyl)-1H-indazol-1-yl]-7,7-dimethyl-5,7-dihydro-6H-pyrrolo[2,3-e][1,2,4]triazin-6-one], the IC50 against human PDE 5 was 75 nM; in the experiment on rabbit aorta rings it was 1130 nM. The minimal effective concentration in experiment [1] turned out to be 0.1 µM.

Regarding `CC1(C)C(=O)Nc2nc(-n3nc(CCC(F)(F)C(F)(F)F)c4cc(F)ccc43)nnc21` [Example 22, 3-[5-Fluoro-3-(3,3,4,4,4-pentafluorobutyl)-1H-indazol-1-yl]-7,7-dimethyl-5,7-dihydro-6H-pyrrolo[2,3-e][1,2,4]triazin-6-one], the values for the IC50 against human PDE 5 and in the experiment with rabbit aorta rings were 530 nM and 7730 nM, respectively. In addition, in experiment [1], the minimal effective concentration was determined as 1 µM.

Consider `CCc1nc(-n2nc(Cc3ccccc3F)c3cc(F)ccc32)nc2c1C(C)(C)C(=O)N2` [Example 23, 4-Ethyl-2-[5-fluoro-3-(2-fluorobenzyl)-1H-indazol-1-yl]-5,5-dimethyl-5,7-dihydro-6H-pyrrolo[2,3-d]pyrimidin-6-one], for which the IC50 at human PDE 5 was found to be 440 nM; with rabbit aorta rings, 8060 nM. The minimal effective concentration in experiment [1] came to 1 µM.

`CC1(C)C(=O)Nc2nc(-c3nn(Cc4ccccc4F)c4cc(Cl)ccc34)nnc21` [Example 24, 3-[6-Chloro-1-(2-fluorobenzyl)-1H-indazol-3-yl]-7,7-dimethyl-5,7-dihydro-6H-pyrrolo[2,3-e][1,2,4]triazin-6-one]: at human PDE 5, the IC50 came out at 25 nM. In experiment [1], the minimal effective concentration was 0.1 µM.

As to `CC1(C)C(=O)Nc2nc(-c3nn(Cc4ncccc4F)c4cc(Cl)ccc34)nnc21` [Example 25, 3-[6-Chloro-1-[(3-fluoropyridin-2-yl)methyl]-1H-indazol-3-yl]-7,7-dimethyl-5,7-dihydro-6H-pyrrolo[2,3-e][1,2,4]triazin-6-one], the IC50 on human PDE 5 stood at 160 nM. Moreover, the minimal effective concentration in experiment [1] was found to be 0.3 µM.
